Patent publication US20200179488A1, “Secretin Receptor Agonists to Treat Diseases or Disorders of Energy Homeostasis” (Technische Universität München, priority 2016, published 2020)

How the values were obtained:
[1] = test system: primary brown adipocytes from UCP1 knockout mice; assay: Microplate respirometry (oxygen consumption rate) in primary brown adipocytes from UCP1 knockout mice; type: cell-based, Mus musculus
Protocol: For culturing primary adipocytes male 129S1/SvImJ mice ([…] or UCP1-KO mice and wildtype littermates) at the age of 5-6 weeks were used for the dissection of inguinal and epidydimal white adipose tissue and interscapular brown adipose tissue depots. The tissue was carefully minced and treated with collagenase for 45 min at 37° C. The homogenate was filtered through a 250 μm nylon mesh and centrifuged at 500 g to collect the stromal vascular fraction (SVF). The SVF cell pellet was rinsed and seeded into XF96 V3-PS cell culture microplate (Seahorse Bioscience). After reaching confluency, induction medium containing 10% fetal bovine serum (FBS), 0.5 mM isobutylmethylxanthine, 125 nM indomethacin, 1 mM dexamethasone, 850 nM insulin and 1 nM T3 was added. After 2 days of induction, cells were maintained in differentiation media (10% FBS, 850 nM insulin and 1 nM T3). Medium was changed every two days. Respiration was measured on day 7 of differentiation. For determination of mRNA levels cells were stimulated at the 7th day of differentiation for 6 hours with secretin (rat, Tocris, Art Nr 1919) or isoproterenol (Sigma-Aldrich, Art Nr. 16504-100MG) and harvested subsequently. Oxygen consumption rate (OCR) was measured at 37° C. using a microplate respirometer (XF96 extracellular flux analyzer, Seahorse Bioscience). At day 7, the differentiation medium was replaced with prewarmed, unbuffered assay medium (DMEM basal medium supplemented with 25 mM glucose, 2 mM sodium pyruvate, 31 mM NaCl, 2 mM GlutaMax and 15 mg/l phenol red, pH 7.4) containing 2% of essentially fatty acid free bovine serum albumin (BSA), and incubated at 37° C. in a room air incubator for 1 h. Basal respiration was measured in untreated cells. […] Maximum respiratory capacity was assessed after FCCP (Sigma-Aldrich) addition (1 μM). […] Oxygen consumption rates were calculated using the Seahorse XF-96 software. […] For induction of OCR by isoproterenol, secretin or FCCP the highest values measured after addition of the respective molecule was used. The “OCR in % of basal OCR” and “OCR in % of FCCP OCR” were calculated as follows: Method: To test whether SCT can activate thermogenesis in brown adipocytes, we measured UCP1-mediated uncoupled respiration in cultured adherent intact primary brown adipocytes, according to a protocol recently established in our lab (Li Y, Fromme T, Schweizer S, Schöttl T, Klingenspor M. EMBO Rep. 2014 October; 15(10):1069-76. doi: 10.15252/embr.201438775; […]. Meaningful respirometric measurements of UCP1-mediated thermogenesis. Biochimie. 2017 March; 134:56-61. doi: 10.1016/j.biochi.2016.12.005.). The cellular oxygen consumption rate (OCR) of primary adipocytes was determined using an XF96 Extracellular Flux Analyzer (Seahorse Bioscience). […]

fasted mice = assay: Food intake on refeeding of fasted wildtype mice; type: in vivo, Mus musculus; conditions: mice fasted 18 h, 5 nmol i.p. before refeeding, p=0.0181 (FIG. 7)
Protocol: (§1) For the measurement of food intake, a feeding-drinking-activity (FDA) device was used (TSE Systems, Bad Homburg/Germany). During the measurement mice were single-housed in type-III cages. Mice were habituated to the new cage environment and received every morning at 10 a.m. a single daily intraperitoneal (i.p.) PBS-injection for four days ahead of the experiment start. The body weight of the mice was measured every day. On day four day of habituation the food was removed from the cages at 5 p.m., and the mice were food deprived over night with ad libitum access to water. On the next morning, mice were i.p. injected with either PBS as control or secretin (rat, Tocris, Art Nr 1919). The latter was given in different doses. Subsequently the mice were refed ad libitum while monitoring food intake during the following 72 hours. […] Food intake was calculated from the decrease in feeder weight. The results were exported into a spreadsheet calculation table (Excel, Microsoft) and analyzed with a software package for statistics and graphics (GraphPad Prism 4.0, GraphPad Software, San Diego, USA).
(§2) Next to thermogenesis, brown fat has been proposed to function in the thermoregulatory control of feeding. […] Just before refeeding, mice were intra-peritoneally injected with 5 nmol secretin solved in PBS, or PBS as the vehicle control, and food intake was monitored for the following three days.

UCP1 knockout mice = assay: Food intake on refeeding of fasted Ucp1 knockout mice; type: in vivo, Mus musculus; conditions: fasted 18 h, 5 nmol i.p., 4 hours of refeeding, compared to wildtype (FIG. 8)
Protocol: as §1, §2

Q: For secretin, which “induction of respiration in cells from UCP1 knockout mice” value ([1]; 129/S1 background, FIG. 3) is on record?
A: lacking

Q: And the “response of respiration in UCP1 knockout brown adipocytes” value ([1]; SCT 10 nM, ISO 500 nM (FIG. 10B))?
A: did not respond

Q: And the “food intake during the first two hours of refeeding versus PBS” value (fasted mice)?
A: significant inhibition of food intake

Q: And the “refeeding food intake in Ucp1 knockout mice” value (UCP1 knockout mice)?
A: did not inhibit refeeding
